# Assay results reported in patent publication US9546129B2, “DTPA prodrugs, compositions thereof, and methods of using the same” (priority 2012, dated 2017).
# Read-outs that look alike come from different tables or passages of the source.
# Assays:
# Caco-2 cells = experiment: Caco-2 transport study (apical to basolateral); assay type: in vitro ADME, human
# Procedure: (§1) Caco-2 cells are a human colon epithelial cancer cell line that expresses transporters, efflux proteins and phase II enzymes and can be used to correlate cell permeability with drug absorption. In addition to determining the apparent permeability coefficient, an estimation of C2E2 metabolism during transport can be obtained. The aim of these preliminary studies was to evaluate a range of C2E2 concentrations (25, 50 & 100 μM) in order to determine a linear concentration range in which further studies could be performed.
# (§2) Caco-2 cells (passage #39) were cultured in 75 cm^2T-flasks at 37° C. in a 5% CO2 constant humidity environment. The medium was replaced 3 times a week and the monolayers were sub-cultured to passage #41. When plating the cells 0.5 mL of a 120,000 cells/mL suspension was added to each apical (AP) compartment of the first and then 1.5 mL of cell culture medium was placed into the basolateral (BL) compartment of the Transwells®. Following 21-24 days on the Transwell® plates with media changes 2-3 times a week the Caco-2 transport studies were performed.
# (§3) Prior to the transport experiments the transport medium was warmed to 37° C. Transport medium consisted of Hank's Balanced Salt Solution (HBSS) (1×) with calcium and magnesium 500 mL with the addition of 1M HEPES buffer (5 mL) and 1.25M D-Glucose solution in HBSS (10 mL). The cell culture medium was removed from the Transwells® to be used for the experiment and each well was washed twice with warm transport medium. The Transwells® were then pre-incubated for 30 min with transport medium. Finally, the trans-epithelial resistance (TEER) values for each Transwell® were measured using a voltohmmmeter and chopstick electrode. The TEER values should be in the range of 300-750 and should vary as little as possible. Dosing solutions were prepared in warm (37° C.) transport medium. […] The concentration of C2E2 was then determined by LC-MS/MS. The concentration of the dosing solutions was also measured to determine the concentration in the donor compartment at time zero. […]
# [1] = Caco-2 transport study (apical to basolateral); assay type: in vitro ADME, human; settings: human, Caco-2; apical to basolateral; read-out: Apparent permeation coefficient
# Procedure: as §1, §2, §3
# [2] = Body weights and clinical observations in the rat single dose decorporation study; assay type: in vivo, Sprague Dawley rat; settings: for Mean body weight: in g (unit assumed)
# Text: Each rat was weighed at contamination (Day 0) and the terminal body weight (Day 7) was taken at necropsy.
# [3] = test system: Chinese hamster ovary (CHO) cells; experiment: In vitro chromosomal aberration assay; assay type: cell-based
# Procedure: The objective of this in vitro assay was to evaluate the ability of C2E2 to induce chromosomal aberrations in cultured Chinese hamster ovary (CHO) cells with and without an exogenous metabolic activation system.
# C2E2 was prepared in cell culture grade water (CCGW) and formed a colorless, transparent, solution. The C2E2 was from Lot 050 obtained using Method 2. Subsequent stocks were prepared by serial dilution in vehicle and all treatments were administered into 10 mL cultures in a volume of 10%. Vehicle control cultures were treated with 100 μL/mL per culture. The treatment periods were for 3 hours with and without metabolic activation or approximately 20 hours without metabolic activation.
# In an initial chromosomal aberration assay (B1 test), C2E2 concentrations of 6.92, 9.89, 14.1, 20.2, 28.8, 41.2, 58.8, 84.0, 120, 172, 245, 350, and 500 μg/mL were tested in duplicate cultures in the 3- and 20-hour tests without S9 and in the 3-hour test with S9 metabolic activation. All cultures, under all test conditions, were harvested approximately 20 hours from the initiation of treatment. At culture termination, viable cells were counted and population doubling was calculated for measurement of cytotoxicity to support selection of dose levels for aberration analysis. Visual observations of cultures for general cell health and confluence were made prior to termination.
# [4] = Precipitation / solubility study in pH 3.0 buffer; assay type: physicochemical
# Procedure: A precipitation study was performed to estimate the concentration at which no precipitation occurs. Initially, 12 samples of C2E2 were prepared at concentrations ranging from 40-150 mg/mL in pH 3.0 buffer in steps of 10 mg/mL. The solutions were left to stir until precipitation occurred.
# Three samples of C2E2 at 60, 70 and 100 mg/mL in pH 3.0 buffer were prepared and stirred at room temperature. At 0.083, […], 1, 2, 4, 6, 20, 24 and 44 hours 0.5 mL samples were withdrawn centrifuged at 14,000×g and the concentration of supernatant measured by HPLC-CAD. At each time-point the pH of the supernatant was also measured.
structure (smiles),measurement,setting,value
"CCOC(=O)CN(CCN(CCN(CC(=O)O)CC(=O)OCC)CC(=O)O)CC(=O)O [C2E2, 6,9-bis(carboxymethyl)-3-(2-ethoxy-2-oxoethyl)-11-oxo-12-oxa-3,6,9-triazatetradecan-1-oic acid]",Percentage of dose detected in the receiving compartment,"Caco-2 cells; apical to basolateral, 25, 50 & 100 μM, two hours",18-22%
same,Predicted absorption in humans,Caco-2 cells; from Caco-2 Papp using data of Shiyin Yee,20-70%
same,Papp A→B at 120 min,[1],4.88 ×10⁻⁶ cm/s
same,Mean Percentage Body Weight Change,"[2]; Female, C2E2 200 mg/kg, Fasted",0.8 ± 2.2%
same,Mean Percentage Body Weight Change,"[2]; Female, C2E2 200 mg/kg, ad libitum",0.0 ± 2.5%
same,Mean Percentage Body Weight Change,"[2]; Female, C2E2 600 mg/kg, Fasted",−2.3 ± 3.3%
same,Mean Percentage Body Weight Change,"[2]; Female, C2E2 600 mg/kg, ad libitum",1.1 ± 1.2%
same,Mean Percentage Body Weight Change,"[2]; Female, C2E2 1000 mg/kg, Fasted",−5.0 ± 2.9%
same,Mean Percentage Body Weight Change,"[2]; Female, C2E2 1000 mg/kg, ad libitum",0.7 ± 2.1%
same,Mean Percentage Body Weight Change,"[2]; Male, C2E2 200 mg/kg, Fasted",8.1 ± 8.4%
same,Mean Percentage Body Weight Change,"[2]; Male, C2E2 200 mg/kg, ad libitum",10.4 ± 11.0%
same,Mean Percentage Body Weight Change,"[2]; Male, C2E2 600 mg/kg, Fasted",12.6 ± 3.1%
same,Mean Percentage Body Weight Change,"[2]; Male, C2E2 600 mg/kg, ad libitum",10.1 ± 3.1%
same,Mean Percentage Body Weight Change,"[2]; Male, C2E2 1000 mg/kg, Fasted",12.0 ± 4.8%
same,Mean Percentage Body Weight Change,"[2]; Male, C2E2 1000 mg/kg, ad libitum",10.6 ± 0.8%
same,Mean body weight,"[2]; female rats, C2E2 200 mg/kg, Fasted, Day 0",245.0 ± 11.6
same,Mean body weight,"[2]; female rats, C2E2 200 mg/kg, Fasted, Day 7 (terminal)",246.8 ± 9.6
same,Mean body weight,"[2]; female rats, C2E2 200 mg/kg, ad libitum, Day 0",276.8 ± 17.3
same,Mean body weight,"[2]; female rats, C2E2 200 mg/kg, ad libitum, Day 7 (terminal)",276.5 ± 15.1
same,Mean body weight,"[2]; female rats, C2E2 600 mg/kg, Fasted, Day 0",280.5 ± 28.0
same,Mean body weight,"[2]; female rats, C2E2 600 mg/kg, Fasted, Day 7 (terminal)",273.5 ± 19.2
same,Mean body weight,"[2]; female rats, C2E2 600 mg/kg, ad libitum, Day 0",247.0 ± 13.8
same,Mean body weight,"[2]; female rats, C2E2 600 mg/kg, ad libitum, Day 7 (terminal)",249.7 ± 14.5
same,Mean body weight,"[2]; female rats, C2E2 1000 mg/kg, Fasted, Day 0",276.3 ± 17.9
same,Mean body weight,"[2]; female rats, C2E2 1000 mg/kg, Fasted, Day 7 (terminal)",262.7 ± 23.8
same,Mean body weight,"[2]; female rats, C2E2 1000 mg/kg, ad libitum, Day 0",232.5 ± 19.3
same,Mean body weight,"[2]; female rats, C2E2 1000 mg/kg, ad libitum, Day 7 (terminal)",234.2 ± 21.4
same,Clinical observations,"[2]; male and female rats, 200, 600, 1000 mg/kg single oral dose, 7 days",No adverse C2E2 exposure-related clinical observations
same,Mean body weight,"[2]; male rats, C2E2 200 mg/kg, Fasted, Day 0",291.3 ± 12.7
same,Mean body weight,"[2]; male rats, C2E2 200 mg/kg, Fasted, Day 7 (terminal)",314.2 ± 14.4
same,Mean body weight,"[2]; male rats, C2E2 200 mg/kg, ad libitum, Day 0",296.3 ± 9.4
same,Mean body weight,"[2]; male rats, C2E2 200 mg/kg, ad libitum, Day 7 (terminal)",326.5 ± 25.7
same,Mean body weight,"[2]; male rats, C2E2 600 mg/kg, Fasted, Day 0",275.9 ± 9.7
same,Mean body weight,"[2]; male rats, C2E2 600 mg/kg, Fasted, Day 7 (terminal)",310.6 ± 9.1
same,Mean body weight,"[2]; male rats, C2E2 600 mg/kg, ad libitum, Day 0",292.8 ± 5.1
same,Mean body weight,"[2]; male rats, C2E2 600 mg/kg, ad libitum, Day 7 (terminal)",322.2 ± 6.4
same,Mean body weight,"[2]; male rats, C2E2 1000 mg/kg, Fasted, Day 0",270.3 ± 5.8
same,Mean body weight,"[2]; male rats, C2E2 1000 mg/kg, Fasted, Day 7 (terminal)",302.8 ± 14.2
same,Mean body weight,"[2]; male rats, C2E2 1000 mg/kg, ad libitum, Day 0",290.5 ± 6.6
same,Mean body weight,"[2]; male rats, C2E2 1000 mg/kg, ad libitum, Day 7 (terminal)",321.2 ± 6.5
same,Reduction in the mitotic index compared to vehicle control,"[3]; 14.1 μg/mL, 20-hour test without S9",53%
same,Cytotoxicity (observation),"[3]; 3-hour treatment with and without S9, up to 500 μg/mL",no relevant cytotoxicity
same,Induction of chromosomal aberrations,"[3]; with and without S9, up to cytotoxicity limiting dose levels and 500 μg/mL",negative
same,Time of sudden precipitation from supersaturated solution,"[4]; 100 mg/ml in pH 3.0 buffer, stirred at room temperature",20 to 24 h
same,solubility,"[4]; Lot 050, solutions at this concentration precipitated over time, read-out: Solubility, initially determined",100 mg/mL
same,solubility,"[4]; aqueous buffer, thermodynamic from solid, pH 3.0 buffer, room temperature, read-out: Solubility at pH 3.0",60 to 70 mg/mL
same,C2E2 concentration above which precipitation was observed,"[4]; pH 3.0 buffer, 24 hours stirring then 48 hours standing at room temperature",above 60 mg/mL
same,C2E2 concentration above which precipitation was observed,"[4]; pH 3.0 buffer, after 24 hours stirring",above 90 mg/mL
